Tested on: Jurkat cells
Experiment: Effect of compounds on growth of human leukemic T-cell line Jurkat cells (Trypan Blue live cell count)
Format: cell-based
Conditions: for IC50: Homo sapiens, growth of Jurkat cells, viable cell count; for cancer cell growth inhibiting effect compared with phytol: Jurkat cells, 24-72 hours
Description: Human leukemic T-cell line Jurkat cells were obtained from the RIKEN BioResource Research Center (Tsukuba-shi, Ibaraki Prefecture). The cells were cultured in RPMI1640 medium (Wako Pure Chemical Industries, Ltd., Osaka-shi, Osaka Prefecture) containing 10% fetal bovine serum (Thermo Fisher Scientifics, K.K., MA, USA), 100 U/mL penicillin and 100 μg/mL spletomycin (both Life Technologies, Carlsbad, CA, USA) at 37° C. in a 95% air-5% CO2 environment.
Jurkat cells were adjusted to 1×10^5 cells/mL and seeded in 24-well multi-plates (Thermo Fisher Scientifics K. K.) by 500 μL/well. After seeding, phytol, aminophytol, amidophytol, methylaminophytol, hexylaminophytol, and acetamidophytol were adjusted with distilled water to a final concentration of 10 μM, 25 μM, and 50 μM respectively, and then added. Note that no compound is added to a control. After adding respective compounds, the cells were stained with Tripan Blue (Life Technologies) after 24, 48, and 72 hours, and live cells were counted using a hemocytometer.
A horizontal axis represents culture time (hours) and a vertical axis represents the number of viable cells (×10^5 cells/mL). “Cont” in the figures represents the control, and “10 μM,” “25 μM,” and “50 μM” represent concentration. FIG. 1 is for phytol; FIG. 2 is for aminophytol; FIG. 3 is for amidophytol; FIG. 4 is for monomethylaminophytol; FIG. 5 is for monohexylaminophytol; and FIG. 6 is for acetamidophytol.

[1] = after 24 hours at a concentration of 25 μM

SMILES | IC50 [µM] | cancer cell growth inhibiting effect compared with phytol (10, 25, 50 μM) | viable cells (at a concentration of 25 μM) | viable cells (at a concentration of 50 μM) | viable cells [1] | growth of Jurkat cells (cancerous cells) (10, 25, 50 μM, 24, 48, 72 hours, concentration-dependence observed) | viable cells (after 72 hours at a concentration of 50 μM)
C/C(=C\C(N)=O)CCC[C@H](C)CCC[C@H](C)CCCC(C)C (racemic) [amidophytol, (E)-3,7,11,15-tetramethylhexadec-2-enamide] | 9.6 | more effect than phytol | – | – | few cells survived | – | –
C/C(=C\CN)CCC[C@H](C)CCC[C@H](C)CCCC(C)C (racemic) [aminophytol, (E)-3,7,11,15-tetramethylhexadec-2-en-1-amine] | 3.8 | more effect than phytol | – | – | few cells survived | – | –

Further molecules by falling IC50, results first:

IC50 [µM] | SMILES | cancer cell growth inhibiting effect compared with phytol (10, 25, 50 μM) | viable cells (at a concentration of 25 μM) | viable cells (at a concentration of 50 μM) | viable cells [1] | growth of Jurkat cells (cancerous cells) (10, 25, 50 μM, 24, 48, 72 hours, concentration-dependence observed) | viable cells (after 72 hours at a concentration of 50 μM)
29.8 | C/C(=C\CO)CCC[C@H](C)CCC[C@H](C)CCCC(C)C [phytol, reference compound] | – | – | – | – | inhibited the growth | viable cells could still be identified
21.2 | CC(=O)NC/C=C(\C)CCC[C@H](C)CCC[C@H](C)CCCC(C)C (racemic) [acetamidophytol, (E)-N-(3,7,11,15-tetramethylhexadec-2-en-1-yl)acetamide] | more effect than phytol | viable cells could still be identified | few cells survived | – | – | –
8.5 | CCCCCCNC/C=C(\C)CCC[C@H](C)CCC[C@H](C)CCCC(C)C (racemic) [monohexylaminophytol, (E)-N-hexyl-3,7,11,15-tetramethylhexadec-2-en-1-amine] | more effect than phytol | – | – | few cells survived | – | –
6.6 | CNC/C=C(\C)CCC[C@H](C)CCC[C@H](C)CCCC(C)C (racemic) [monomethylaminophytol, (E)-N,3,7,11,15-pentamethylhexadec-2-en-1-amine] | more effect than phytol | – | – | few cells survived | – | –
